Data from US20200216439A1, “HETERO-1,5,6,7-TETRAHYDRO-4H-INDOL-4-ONES” (BAYER PHARMA AKTIENGESELLSCHAFT, priority 2015, published 2020).
pIC50: −log10 of the molar value.

Each molecule was assayed against T1, catalytic domain of human Bub1 (amino acids 704-1085) (Homo sapiens, UniProt O43683) (assay: Bub1 kinase assay (TR-FRET)). Conditions: not given.
T1 construct: catalytic domain of human Bub1 (amino acids 704-1085); His6 (N); made in house; host or cells: Hi5 insect cells
Format: biochemical
How it was run: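 Human Bub1 catalytic domain (704-1085, His6-tagged, Hi5-expressed, ~200 ng/mL) preincubated with compound 15 min at 22 °C, then reacted 60 min at 22 °C with 10 μM ATP and 1 μM biotinylated peptide substrate, pH 7.5. EDTA stop; TR-FRET 665/620 ratio; IC50 from 4-parameter fit, 11 concentrations in duplicate.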

T1 sequence (O43683 704-1085): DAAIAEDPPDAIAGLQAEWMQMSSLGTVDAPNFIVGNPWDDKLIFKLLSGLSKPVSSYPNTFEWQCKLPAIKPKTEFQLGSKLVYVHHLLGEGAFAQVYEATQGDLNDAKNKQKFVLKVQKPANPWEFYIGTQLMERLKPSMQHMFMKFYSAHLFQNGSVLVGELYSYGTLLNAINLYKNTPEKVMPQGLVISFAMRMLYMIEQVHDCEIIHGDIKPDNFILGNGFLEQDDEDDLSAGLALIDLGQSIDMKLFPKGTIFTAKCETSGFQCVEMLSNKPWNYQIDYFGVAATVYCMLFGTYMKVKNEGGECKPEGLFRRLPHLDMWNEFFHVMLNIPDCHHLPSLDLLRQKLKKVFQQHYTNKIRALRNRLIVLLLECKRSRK

Row | SMILES | pIC50
1 | COc1cc(C(=O)Nc2cc(-c3[nH]c4c(c3Nc3ccccc3)C(=O)CN(C(=O)N3CCOCC3)C4)ccn2)ccc1F [Example 260, 4-Fluoro-3-methoxy-N-4-[6-(morpholin-4-ylcarbonyl)-4-oxo-3(phenylamino)-4,5,6,7-tetrahydro-1H-pyrrolo[2,3-c]pyridin-2-yl]pyridin-2-ylbenzamide] | 8.10

Same assay, conditions: TR-FRET; ATP 10 μM, peptide substrate 1 μM; 60 min at 22° C.; average or median if tested more than once; read-out: Inhibition of Bub1 kinase IC50

Row | SMILES | pIC50
2 | COC(=O)N1CC(=O)c2c([nH]c(-c3ccncc3OCC(F)F)c2Nc2ccccc2)C1 [Example 236, Methyl 2-[3-(2,2-difluoroethoxy)pyridin-4-yl]-4-oxo-3-(phenylamino)-1,4,5,7-tetrahydro-6H-pyrrolo[2,3-c]pyridine-6-carboxylate] | 7.80
3 | CNC(=O)N1CC(=O)c2c([nH]c(-c3ccncc3OCC(F)F)c2Nc2ccccc2)C1 [Example 237, 2-[3-(2,2-Difluoroethoxy)pyridin-4-yl]-N-methyl-4-oxo-3-(phenylamino)-1,4,5,7-tetrahydro-6H-pyrrolo[2,3-c]pyridine-6-carboxamide] | 7.74
4 | O=C1CN(C(=O)N2CCOCC2)Cc2[nH]c(-c3ccncc3OCC(F)F)c(Nc3ccccc3)c21 [Example 239, 2-[3-(2,2-Difluoroethoxy)pyridin-4-yl]-6-(morpholin-4-ylcarbonyl)-3-(phenylamino)-1,5,6,7-tetrahydro-4H-pyrrolo[2,3-c]pyridin-4-one] | 7.70
5 | CN1CCN(C(=O)N2CC(=O)c3c([nH]c(-c4ccncc4OCC(F)F)c3Nc3ccccc3)C2)CC1 [Example 240, 2-[3-(2,2-Difluoroethoxy)pyridin-4-yl]-6-[(4-methylpiperazin-1-yl)carbonyl]-3-(phenylamino)-1,5,6,7-tetrahydro-4H-pyrrolo[2,3-c]pyridin-4-one] | 7.18
6 | CC(C)S(=O)(=O)N1CC(=O)c2c([nH]c(-c3ccncc3OCC(F)F)c2Nc2ccccc2)C1 [Example 241, 2-[3-(2,2-Difluoroethoxy)pyridin-4-yl]-3-(phenylamino)-6-(propan-2-ylsulfonyl)-1,5,6,7-tetrahydro-4H-pyrrolo[2,3-c]pyridin-4-one] | 7.89
7 | COC(=O)N1CC(=O)c2c([nH]c(-c3ccncc3OCC(F)(F)F)c2Nc2ccccc2)C1 [Example 242, Methyl 4-oxo-3-(phenylamino)-2-[3-(2,2,2-trifluoroethoxy)pyridin-4-yl]-1,4,5,7-tetrahydro-6H-pyrrolo[2,3-c]pyridine-6-carboxylate] | 7.24
8 | CNC(=O)N1CC(=O)c2c([nH]c(-c3ccncc3OCC(F)(F)F)c2Nc2ccccc2)C1 [Example 243, N-Methyl-44-oxo-3-(phenylamino)-2-[3-(2,2,2-trifluoroethoxy)pyridin-4-yl]-1,4,5,7-tetrahydro-6H-pyrrolo[2,3-c]pyridine-6-carboxamide] | 7.26
9 | CN(C)C(=O)N1CC(=O)c2c([nH]c(-c3ccncc3OCC(F)(F)F)c2Nc2ccccc2)C1 [Example 244, N,N-Dimethyl-4-oxo-3-(phenylamino)-2-[3-(2,2,2-trifluoroethoxy)pyridin-4-yl]-1,4,5,7-tetrahydro-6H-pyrrolo[2,3-c]pyridine-6-carboxamide] | 7.74
10 | O=C1CN(C(=O)N2CCOCC2)Cc2[nH]c(-c3ccncc3OCC(F)(F)F)c(Nc3ccccc3)c21 [Example 245, 6-(Morpholin-4-ylcarbonyl)-3-(phenylamino)-2-[3-(2,2,2-trifluoroethoxy)pyridin-4-y]1,5,6,7-tetrahydro-4H-pyrrolo[2,3-c]pyridin-4-one] | 7.14
11 | CN1CCN(C(=O)N2CC(=O)c3c([nH]c(-c4ccncc4OCC(F)(F)F)c3Nc3ccccc3)C2)CC1 [Example 246, 6-[(4-Methylpiperazin-1-yl)carbonyl]-3-(phenylamino)-2-[3-(2,2,2-trifluoroethoxy)pyridin-4-yl]-1,5,6,7-tetrahydro-4H-pyrrolo[2,3-c]pyridin-4-one] | 6.50
12 | CC(C)S(=O)(=O)N1CC(=O)c2c([nH]c(-c3ccncc3OCC(F)(F)F)c2Nc2ccccc2)C1 [Example 247, 3-(Phenylamino)-6-(propan-2-ylsulfonyl)-2-[3-(2,2,2-trifluoroethoxy)pyridin-4-yl]-1,5,6,7-tetrahydro-4H-pyrrolo[2,3-c]pyridin-4-one] | 7.19
13 | CNC(=O)N1CC(=O)c2c([nH]c(-c3ccncc3OCC3CC3)c2Nc2ccccc2)C1 [Example 251, 2-[3-(Cyclopropylmethoxy)pyridin-4-yl]-N-methyl-4-oxo-3-(phenylamino)-1,4,5,7-tetrahydro-6H-pyrrolo[2,3-c]pyridine-6-carboxamide] | 7.92
14 | CN1CCN(C(=O)N2CC(=O)c3c([nH]c(-c4ccncc4OCC4CC4)c3Nc3ccccc3)C2)CC1 [Example 252, 2-[3-(Cyclopropylmethoxy)pyridin-4-yl]-6-[(4-methylpiperazin-1-yl)carbonyl]-3-(phenylamino)-1,5,6,7-tetrahydro-4H-pyrrolo[2,3-c]pyridin-4-one] | 7.32
15 | COc1cc(C(=O)Nc2cc(-c3[nH]c4c(c3Nc3ccccc3)C(=O)CN(C(=O)OC(C)(C)C)C4)ccn2)ccc1F [Example 253, tert-butyl 2-2-[(4-fluoro-3-methoxybenzoyl)amino]pyridin-4-yl-4-oxo-3-(phenylamino)-1,4,5,7-tetrahydro-6H-pyrrolo[2,3-c]pyridine-6-carboxylate] | 7.38
16 | CC(=O)Nc1cc(-c2[nH]c3c(c2Nc2ccccc2)C(=O)CN(C(=O)N2C[C@@H](C)O[C@@H](C)C2)C3)ccn1 [Example 255, N-4-[6-[(2R,6S)-2,6-Dimethylmorpholin-4-yl]carbonyl-4-oxo-3-(phenylamino)-4,5,6,7-tetrahydro-1H-pyrrolo[2,3-c]pyridin-2-yl]pyridin-2-ylacetamide] | 6.43
17 | COc1cc(C(=O)Nc2cc(-c3c(Nc4ccccc4)c4c(n3C)CN(C(=O)OC(C)(C)C)CC4=O)ccn2)ccc1F [Example 256, tert-Butyl 2-2-[(4-fluoro-3-methoxybenzoyl)amino]pyridin-4-yl-1-methyl-4-oxo-3-(phenylamino)-1,4,5,7-tetrahydro-6H-pyrrolo[2,3-c]pyridine-6-carboxylate] | 6.03
18 | COc1cc(C(=O)Nc2cc(-c3[nH]c4c(c3Nc3ccccc3)C(=O)CNC4)ccn2)ccc1F [Example 257] | 7.46
19 | COc1cc(C(=O)Nc2cc(-c3[nH]c4c(c3Nc3ccccc3)C(=O)CN(C(=O)N3C[C@@H](C)O[C@@H](C)C3)C4)ccn2)ccc1F [Example 261, N-4-[6-[(2R,6S)-2,6-Dimethylmorpholin-4-yl]carbonyl-4-oxo-3-(phenylamino)-4,5,6,7-tetrahydro-1H-pyrrolo[2,3-c]pyridin-2-yl]pyridin-2-yl-4-fluoro-3-methoxybenzamide] | 6.45
20 | Cc1cc(F)ccc1C(=O)Nc1cc(-c2[nH]c3c(c2Nc2ccccc2)C(=O)CN(C(=O)OC(C)(C)C)C3)ccn1 [Example 263, tert-Butyl 2-2-[(4-fluoro-2-methylbenzoyl)amino]pyridin-4-yl-4-oxo-3-(phenylamino)-1,4,5,7-tetrahydro-6H-pyrrolo[2,3-c]pyridine-6-carboxylate] | 7.42

The next lines start with the values.

Row | pIC50 | SMILES
21 | 8.00 | COc1cc(C(=O)Nc2cc(-c3[nH]c4c(c3Nc3ccccc3)C(=O)CN(C(C)=O)C4)ccn2)ccc1F [Example 258]
22 | 8.05 | COC(=O)N1CC(=O)c2c([nH]c(-c3ccncc3OCC3CC3)c2Nc2ccccc2)C1 [Example 250, Methyl 2-[3-(cyclopropylmethoxy)pyridin-4-yl]-4-oxo-3-(phenylamino)-1,4,5,7-tetrahydro-6H-pyrrolo[2,3-c]pyridine-6-carboxylate]
23 | 8.10 | CN(C)C(=O)N1CC(=O)c2c([nH]c(-c3ccncc3OCC(F)F)c2Nc2ccccc2)C1 [Example 238, 2-[3-(2,2-Difluoroethoxy)pyridin-4-yl]-N,N-dimethyl-4-oxo-3-(phenylamino)-1,4,5,7-tetrahydro-6H-pyrrolo[2,3-c]pyridine-6-carboxamide]
24 | 8.10 | COc1cc(C(=O)Nc2cc(-c3[nH]c4c(c3Nc3ccccc3)C(=O)CN(C(=O)N3CCCC3)C4)ccn2)ccc1F [Example 262, 4-Fluoro-3-methoxy-N-4-[4-oxo-3-(phenylamino)-6-(pyrrolidin-1-ylcarbonyl)-4,5,6,7-tetrahydro-1H-pyrrolo[2,3-c]pyridin-2-yl]pyridin-2-ylbenzamide]
25 | 8.22 | CS(=O)(=O)N1CC(=O)c2c([nH]c(-c3ccncc3OCC3CC3)c2Nc2ccccc2)C1 [Example 235, 2-[3-(Cyclopropylmethoxy)pyridin-4-yl]-6-(methylsulfonyl)-3-(phenylamino)-1,5,6,7-tetrahydro-4H-pyrrolo[2,3-c]pyridin-4-one]
26 | 8.30 | COCCOc1cnccc1-c1[nH]c2c(c1Nc1ccccc1)C(=O)CN(S(C)(=O)=O)C2 [Example 234]
27 | 8.30 | COCCOc1cnccc1-c1[nH]c2c(c1Nc1ccccc1)C(=O)CN(C(=O)OC)C2 [Example 248, Methyl 2-[3-(2-methoxyethoxy)pyridin-4-yl]-4-oxo-3-(phenylamino)-1,4,5,7-tetrahydro-6H-pyrrolo[2,3-c]pyridine-6-carboxylate]
28 | 8.30 | CNC(=O)N1CC(=O)c2c([nH]c(-c3ccncc3OCCOC)c2Nc2ccccc2)C1 [Example 249]
29 | 8.40 | CC(=O)Nc1cc(-c2[nH]c3c(c2Nc2ccccc2)C(=O)CN(S(=O)(=O)N(C)C)C3)ccn1 [Example 254, N-4-[6(Dimethylsulfamoyl)-4-oxo-3-(phenylamino)-4,5,6,7-tetrahydro-1H-pyrrolo[2,3-c]pyridin-2-yl]pyridin-2-ylacetamide]
30 | 8.52 | COc1cc(C(=O)Nc2cc(-c3[nH]c4c(c3Nc3ccccc3)C(=O)CN(S(=O)(=O)N(C)C)C4)ccn2)ccc1F [Example 259, N-4-[6-(Dimethylsulfamoyl)-4-oxo-3-(phenylamino)-4,5,6,7-tetrahydro-1H-pyrrolo[2,3-c]pyridin-2-yl]pyridin-2-yl-4-fluoro-3-methoxybenzamide]
